In patent US9011863B2, “Combinations of kinase inhibitors for the treatment of cancer” (Exelixis, Inc., priority 2010, dated 2015):

Biological target: p110α catalytic subunit of PI3K (Homo sapiens, UniProt P42336)
Assay: in vitro PI3K assay (PI3K-induced ATP consumption)
Assay type: biochemical
Settings: read-out: in vitro IC50 against p110α
From the text: Compounds of formula I have been tested using the assay described in Biological Example 1 of WO2007044729 and have been determined to be PI3K inhibitors. As such, compounds of formula I are useful for treating diseases, particularly cancer in which PI3K activity contributes to the pathology and/or symptomatology of the disease. For example, cancer in which PI3K activity contributes to its pathology and/or symptomatology include breast cancer, colon cancer, rectal cancer, endometrial cancer, gastric carcinoma, glioblastoma, hepatocellular carcinoma, small cell lung cancer, non-small cell lung cancer, melanoma, ovarian cancer, pancreatic cancer, prostate carcinoma, acute myelogenous leukemia (AML), chronic myelogenous leukemia (CML), and thyroid carcinoma, and the like.
Suitable in vitro assays for measuring PI3K activity and the inhibition thereof by compounds are known. Typically, the assay will measure PI3K-induced ATP consumption. […] Cellular activity can be determined using assays as described in Biological Examples 2, 3, and 4 of WO2007044729. […]
The purpose of the present study is to identify kinases and kinase-regulated signaling pathways that compensate for PI3K inhibition in human breast cancer cells. […] Gene expression from three independent experiments was measured using the Gene titan 3′ microarray. *, p<0.05; **, p<0.01 versus 0 hours, as shown in FIG. 5. […]

Chain of p110α catalytic subunit of PI3K (P42336 whole entry): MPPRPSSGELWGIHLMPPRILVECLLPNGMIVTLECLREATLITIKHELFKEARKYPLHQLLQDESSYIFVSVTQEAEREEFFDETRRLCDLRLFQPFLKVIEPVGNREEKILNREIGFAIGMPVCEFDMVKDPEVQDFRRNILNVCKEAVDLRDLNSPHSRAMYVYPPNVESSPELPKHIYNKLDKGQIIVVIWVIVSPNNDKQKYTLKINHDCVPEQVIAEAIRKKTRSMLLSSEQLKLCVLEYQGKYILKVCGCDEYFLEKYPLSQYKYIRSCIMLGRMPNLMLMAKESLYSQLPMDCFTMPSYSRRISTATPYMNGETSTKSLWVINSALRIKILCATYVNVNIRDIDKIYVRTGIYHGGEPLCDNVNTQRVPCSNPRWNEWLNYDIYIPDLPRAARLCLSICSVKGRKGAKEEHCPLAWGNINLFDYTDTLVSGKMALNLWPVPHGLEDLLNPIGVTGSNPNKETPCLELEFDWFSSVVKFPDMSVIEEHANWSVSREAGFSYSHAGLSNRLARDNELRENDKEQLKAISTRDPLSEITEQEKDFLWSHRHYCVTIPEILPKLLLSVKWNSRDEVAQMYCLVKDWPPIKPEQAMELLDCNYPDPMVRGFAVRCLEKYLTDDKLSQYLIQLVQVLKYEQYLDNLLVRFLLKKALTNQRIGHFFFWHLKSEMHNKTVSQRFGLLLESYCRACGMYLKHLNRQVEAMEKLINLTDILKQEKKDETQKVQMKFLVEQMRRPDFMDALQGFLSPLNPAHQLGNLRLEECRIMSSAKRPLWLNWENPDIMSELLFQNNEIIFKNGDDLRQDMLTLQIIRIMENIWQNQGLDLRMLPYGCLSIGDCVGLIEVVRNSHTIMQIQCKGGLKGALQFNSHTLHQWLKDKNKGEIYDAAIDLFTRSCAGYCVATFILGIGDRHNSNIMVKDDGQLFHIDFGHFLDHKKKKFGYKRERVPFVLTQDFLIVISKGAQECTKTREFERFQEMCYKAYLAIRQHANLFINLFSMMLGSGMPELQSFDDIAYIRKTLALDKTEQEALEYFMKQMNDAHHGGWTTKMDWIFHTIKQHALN
Chain of p110α catalytic subunit of PI3K (P27986 whole entry partner): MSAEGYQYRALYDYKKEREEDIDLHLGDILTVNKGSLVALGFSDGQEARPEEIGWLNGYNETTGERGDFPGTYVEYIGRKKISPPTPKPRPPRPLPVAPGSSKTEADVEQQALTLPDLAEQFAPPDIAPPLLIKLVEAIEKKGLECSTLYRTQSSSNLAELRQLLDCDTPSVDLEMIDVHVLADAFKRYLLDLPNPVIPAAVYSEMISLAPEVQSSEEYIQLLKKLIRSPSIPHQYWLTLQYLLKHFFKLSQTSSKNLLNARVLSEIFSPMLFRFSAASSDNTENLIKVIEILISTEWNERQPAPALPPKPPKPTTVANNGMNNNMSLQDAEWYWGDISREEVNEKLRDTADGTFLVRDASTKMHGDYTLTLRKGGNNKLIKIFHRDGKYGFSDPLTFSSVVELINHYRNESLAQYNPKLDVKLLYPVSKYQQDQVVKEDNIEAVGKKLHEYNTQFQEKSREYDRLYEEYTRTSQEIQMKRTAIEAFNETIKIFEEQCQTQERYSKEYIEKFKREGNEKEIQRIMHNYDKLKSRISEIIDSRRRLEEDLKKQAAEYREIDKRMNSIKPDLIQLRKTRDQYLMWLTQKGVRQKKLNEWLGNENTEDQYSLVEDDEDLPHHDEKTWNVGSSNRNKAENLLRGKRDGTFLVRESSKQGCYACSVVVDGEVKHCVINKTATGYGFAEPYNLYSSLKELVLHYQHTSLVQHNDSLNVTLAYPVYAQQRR

SMILES: COc1ccc(Cl)c(Nc2nc3ccccc3nc2NS(=O)(=O)c2cccc(NC(=O)C(C)(C)N)c2)c1 [Compound A]
- IC50: 39 nM
